For the data set the following is noted: pH 7.4.

Procedure: HFA-exposed TFF ITZ powder (1 mg) was added to 50 mL of dissolution media to yield an initial drug loading of 20 μg/mL. Sample aliquots (1.5 mL) were taken from the dissolution vessels at various time points. The aliquots were filtered immediately using a 0.2 μm syringe filter. […] TFF ITZ powder that had been previously exposed to HFA 227 (1 mg) was added to the dissolution media (50 mL) to achieve an initial loading of 20 μg ITZ/mL. All samples were filtered with 0.2 μm pore size filters.

`CCC(C)n1ncn(-c2ccc(N3CCN(c4ccc(OCC5COC(Cn6cncn6)(c6ccc(Cl)cc6Cl)O5)cc4)CC3)cc2)c1=O` (stereo not shown) [crystalline ITZ, itraconazole] returned an equilibrium solubility of 1.4 µg/mL.

The values above are taken from patent publication US12029816B2, “Compositions and methods of making brittle-matrix particles through blister pack freezing” (BOARD OF REGENTS, THE UNIVERSITY OF TEXAS SYSTEM, priority 2010, dated 2024).
